Reference: ChEMBL document CHEMBL3627608, “Crystal structures of human RIP2 kinase catalytic domain complexed with ATP-competitive inhibitors: Foundations for understanding inhibitor selectivity” (Bioorg Med Chem, 2015)

Target: Bone morphogenetic protein receptor type-1B (Homo sapiens) (UniProt O00238)
Test: Inhibition of ALK6 (unknown origin) at 10 uM after 120 mins P33 radiolabeled kinase activity assay

Sequence of Bone morphogenetic protein receptor type-1B (Homo sapiens) (O00238 whole entry): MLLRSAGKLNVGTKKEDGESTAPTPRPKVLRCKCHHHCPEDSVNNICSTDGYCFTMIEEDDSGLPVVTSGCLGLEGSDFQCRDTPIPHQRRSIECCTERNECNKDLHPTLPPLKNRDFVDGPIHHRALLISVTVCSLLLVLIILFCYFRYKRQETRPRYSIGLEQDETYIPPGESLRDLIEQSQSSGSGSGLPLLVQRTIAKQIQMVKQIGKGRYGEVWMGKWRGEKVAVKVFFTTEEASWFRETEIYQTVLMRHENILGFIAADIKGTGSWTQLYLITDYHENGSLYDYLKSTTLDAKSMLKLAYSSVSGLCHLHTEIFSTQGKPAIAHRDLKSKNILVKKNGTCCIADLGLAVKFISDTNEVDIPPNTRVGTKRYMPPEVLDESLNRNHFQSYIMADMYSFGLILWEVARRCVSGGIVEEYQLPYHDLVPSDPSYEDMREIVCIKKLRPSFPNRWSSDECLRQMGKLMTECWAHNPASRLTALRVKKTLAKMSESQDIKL

inhibition: 92.8%
SMILES: CS(=O)(=O)c1cccc(Nc2nccc(-c3sc(N4CCOCC4)nc3-c3cccc(NS(=O)(=O)c4c(F)cccc4F)c3)n2)c1
